Assays:
[1] = test system: DRG neurons; experiment: Axon growth in dissociated DRG cultures; format: cell-based, rat
Experimental: Cell culture. For primary neuronal cultures, L4-5 DRG were harvested in Hybernate-A medium (BrainBits) and then dissociated as described. After centrifugation and washing in DMEM/F12 (Life Technologies), cells were resuspended in DMEM/F12, 1×N1 supplement (Sigma), 10% fetal bovine serum (Hyclone), and 10 μM cytosine arabinoside (Sigma). Dissociated DRGs were plated immediately on laminin/poly-L-lysine-coated coverslips or transfected (see below) and then plated on coated coverslips.
[…] Neurite outgrowth was assessed 24 h after addition of peptides. For the cortical cultures, 10 μM peptide was applied to the axonal compartment at 3 d in vitro (DIV) and axonal growth was assessed at 6 DIV. For iMotor neurons, 20 μM peptides were immediately added and neurite growth was assessed 24 h later.
For neurite outgrowth, images from 60 h DRG cultures were analyzed for neurite outgrowth using WIS-Neuromath. Axon morphology was visualized using GFP and/or NF immunofluorescence as described. Differentiated hiPSC neuron image acquisition and neurite length quantification was performed using Arrayscan XTI (Thermo Fisher).

[2] = test system: E18 cortical neurons; experiment: Axon growth of cortical neurons in microfluidic devices; format: cell-based, rat; conditions: 10 μM peptide applied to axonal compartment at 3 DIV, assessed at 6 DIV
Experimental: For cortical neuron cultures, E18 cortices were dissected in Hibernate E (BrainBits) and dissociated using the Neural Tissue Dissociation kit (Miltenyi Biotec). For this, minced cortices were incubated in a pre-warmed enzyme mix at 37° C. for 15 min; tissues were then triturated and applied to a 40 μm cell strainer.
After washing and centrifugation, neurons were seeded at a density of 1×10^5 cells per poly-D-lysine-coated microfluidic device (Xona Microfluidics). NbActive-1 medium (BrainBits) supplemented with 100 U/ml of Penicillin-Streptomycin (Life Technologies), 2 mM L-glutamine (Life Technologies), and 1×N21 supplement (R&D Systems) was used as culture medium.
For peptide treatments, 10 μM Tat-fused peptides were added to dissociated DRG cultures at 2 or 12 h after plating. Neurite outgrowth was assessed 24 h after addition of peptides. For the cortical cultures, 10 μM peptide was applied to the axonal compartment at 3 d in vitro (DIV) and axonal growth was assessed at 6 DIV. For iMotor neurons, 20 μM peptides were immediately added and neurite growth was assessed 24 h later.

[3] = test system: G3BP1 aggregates in E12.5 motor neurons; experiment: Endogenous G3BP1 aggregates in MPP+-treated motor neurons; format: cell-based, mouse; conditions: MPP+ plus 10 μM peptide
Experimental: Previous studies have shown that, exposure of midbrain neurons results in formation of stress granules. To test whether treatment of motor neurons with mitotoxin MPP+ results in the formation of stress granules the inventors stained the MPP+-treated neurons for G3BP1 protein.
(A) Quantification of mitotoxin/neurotoxin MPP+-induced degeneration of DIV7 E12.5 motor neuron neurites after exposure of cultures to 100 μM MPP+ and either 10 μM 190-208 G3BP1 or 168-189 control peptide. As controls, neurons treated with solvents were used. (B) Representative images of G3BP1 (green) and NF-labeled (red) E12.5 motor neurons under control or after treatment with 100 μM MPP+ [scale bar=10 μm]. (C) distribution of sizes of endogenous G3BP1 aggregate per 100 μm neurite is shown as indicated bins from motor neurons cultures as treated in (B). (N≥80 neurites over three repetitions; by one-way ANOVA with Tukey HSD post-hoc). […] (D) Endogenous G3BP1 aggregate sizes per 100 μm neurite indicated as bins for motor neurons either untreated or treated with MPP+ alone or with addition of 10 μM 190-208 G3BP1 or 168-189 control peptide. […] (N≥90 over 3 cultures; by one-way ANOVA with Tukey HSD post-hoc)

[4] = test system: TIA1, G3BP1 and TDP43 granules in E12.5 motor neurons; experiment: Stress granule protein granules in neurites of arsenite-treated motor neurons; format: cell-based, mouse; conditions: sodium arsenite 0.5 mM 30 minutes, then 10 μM peptide; for number of flag-TDP43 granules greater than 2 μm^2 per 100 μm of neurite: WT and ALS mutant flag-TDP43; for number of large TIA1-GFP granules (>2 μm^2) in neurites: WT and mutant TIA1-GFP
Description: To further evaluate whether mutant TIA1 and TDP43 protein aggregates are affected by G3BP1 190-208 peptide, the inventors expressed the mutant proteins in embryonic motor neurons and assessed granules formed in neurites with or without arsenite treatment either in the presence of G3BP1 190-208 or control 168-189 peptide.
FIG. 6: Cell permeable G3BP1 190-208 peptide decreases granules formed by endogenous TIA1 and TDP43 and exogenous TDP43 and TIA1 mutants in motor neurons after sodium arsenite exposure. (A) Embryonic motor neurons isolated from E12.5 mouse embryos were exposed to sodium arsenite (0.5 mM) for 30 minutes and then treated with 10 μM 190- 208 or […] peptide. After fixation endogenous TIA1 was visualized by immunostaining. The number of TIA1 granules greater than 2 μm^2 per 100 μm of neurite were measured. (B) E12.5 motor neurons were treated as described in (A) and immunostaining was used to detect endogenous G3BP1 protein. The number of G3BP1 granules greater than 2 μm^2 per 100 μm of neurite were measured. […] (C) E12.5 motor neurons expressing TIA1-GFT or ALS/FTD-associated mutants TIA1-A381T, TIA1-E384K were treated with sodium arsenite (0.5 mM) for 30 minutes followed by treatment with either 10 μM 190-208 G3BP1 or 168-189 control peptide. The number of cells containing TIA1-GFP puncta were measured 2 μm^2 per 100 μm of neurite and results are reported relative to non-treated controls. The number of TIA1-GFP granules in neurites decreased for WT and ALS/FTD mutants after treatment with 190-208 G3BP1 as compared to the 168-189 control peptide treated cells. (I)) E12.5 motor neurons expressing flag-tagged wildtype TDP43 or ALS-associated mutants TDP43-M337V and TDP43-Q331.K were treated with sodium arsenite (0.5 mM) for 30 minutes followed by treatment with either 10 μM 190-208 G3BP1 or 168189 control peptide. Flag-TDP43 was detected by immunostaining using the anti-flag-antibody. The number of flag-TDP43 granules greater than 2 μm^2 were measured per 100 μm of neurite and the results are reported relative to non-treated controls. The number of Flag-TDP43 granules in neurites were decreased after treatment with 190-208 G3BP1 peptide as compared to the 168-189 control peptide in both WT and ALS/FTD mutants expressing cells. ([…] over 3 cultures; by two-way ANOVA with Tukey HSD post-hoc),

[5] = 10 μM Tat-fused peptide added to DRG cultures immediately after plating
[6] = listed as 190-208 G3BP1 peptide

YGNKKNNNQNNN-VVEPEPEPEPEPEPEPVSE [G3BP1 190-208 peptide]
axon length [1, 5]: increased axon length
number of neurites per neuron [1, 5]: increased the number of neurites per neuron
axon length ([1]; delayed application (peptide added at 12 h, assessed at 36 h), naive and preinjured DRG neurons): significantly increased axon length
axon growth [2]: significant increase in axon growth
size of endogenous G3BP1 aggregates per 100 μm neurite [3]: decrease in the size of aggregates
size of endogenous G3BP1 aggregates per 100 μm neurite [3, 6]: decrease in the number of larger G3BP1 granules
number of flag-TDP43 granules greater than 2 μm^2 per 100 μm of neurite [4]: reversed
number of flag-TDP43 granules greater than 2 μm^2 per 100 μm of neurite [4, 6]: decreased
number of large TIA1-GFP granules (>2 μm^2) in neurites [4]: decrease in the number of large granules
number of large TIA1-GFP granules (>2 μm^2) in neurites ([4]; listed as 190-208 G3BP1): decreased
number of endogenous TIA1 and G3BP1 granules greater than 2 μm^2 per 100 μm of neurite [4]: reverses the increase number of these larger granules
number of endogenous TIA1 and G3BP1 granules greater than 2 μm^2 per 100 μm of neurite ([4]; listed as 190-208): significantly decreased levels of TIA1 and G3BP1 granules

From patent US20230190887A1, “TARGETING G3BP AGGREGATION TO PREVENT NEURODEGENERATION” (priority 2019, published 2023)
